Reference: PubChem BioAssay AID2060505 (Molecular Pharmacology Branch, DTP, NCI, 2025)

Test system: 633275-114-R-J1-PDC complex spheroids, viability
Assay: Anticancer human tumor 633275-114-R-J1-PDC patient-derived endometrial adenocarcinoma cell line growth inhibition [GQUAD]
Details: for IC50: curve of first compound; for viability, T/C: stronger effect = lower value
Summary of the method: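 Viability of tumor cells grown as complex spheroids with endothelial and stromal cells, exposed to drug combinations. Top concentration at or near clinical Cmax (else 10 microM), diluted in half-log increments.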

[1] = second compound 0.0316 µM, first compound 0.0316 µM
[2] = second compound 0.0316 µM, first compound 0.316 µM
[3] = second compound 0.1 µM, first compound 0.0316 µM
[4] = second compound 0.1 µM, first compound 0.316 µM
[5] = second compound 0.316 µM, first compound 0.0316 µM
[6] = second compound 0.316 µM, first compound 0.316 µM
[7] = second compound 1 µM, first compound 0.0316 µM
[8] = second compound 1 µM, first compound 0.316 µM
[9] = second compound 3.16 µM, first compound 0.0316 µM
[10] = second compound 3.16 µM, first compound 0.316 µM
[11] = second compound 10 µM, first compound 0.0316 µM
[12] = second compound 10 µM, first compound 0.316 µM
[13] = second compound 0.0316 µM, first compound 0.000999 µM
[14] = second compound 0.0316 µM, first compound 0.00316 µM
[15] = second compound 0.0316 µM, first compound 0.00999 µM
[16] = second compound 0.0316 µM, first compound 0.0999 µM
[17] = second compound 0.1 µM, first compound 0.000999 µM
[18] = second compound 0.1 µM, first compound 0.00316 µM
[19] = second compound 0.1 µM, first compound 0.00999 µM
[20] = second compound 0.1 µM, first compound 0.0999 µM
[21] = second compound 0.316 µM, first compound 0.000999 µM
[22] = second compound 0.316 µM, first compound 0.00316 µM
[23] = second compound 0.316 µM, first compound 0.00999 µM
[24] = second compound 0.316 µM, first compound 0.0999 µM
[25] = second compound 1 µM, first compound 0.000999 µM
[26] = second compound 1 µM, first compound 0.00316 µM
[27] = second compound 1 µM, first compound 0.00999 µM
[28] = second compound 1 µM, first compound 0.0999 µM
[29] = second compound 3.16 µM, first compound 0.000999 µM
[30] = second compound 3.16 µM, first compound 0.00316 µM
[31] = second compound 3.16 µM, first compound 0.00999 µM
[32] = second compound 3.16 µM, first compound 0.0999 µM
[33] = second compound 10 µM, first compound 0.000999 µM
[34] = second compound 10 µM, first compound 0.00316 µM
[35] = second compound 10 µM, first compound 0.00999 µM
[36] = second compound 10 µM, first compound 0.0999 µM
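Further: spheroids exposed to the agents for seven days.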
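Wherever viability, T/C is given: percent of DMSO vehicle control viability which is 100%.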

## COc1cccc2c1C(=O)c1c(O)c3c(c(O)c1C2=O)CC(O)(C(=O)CO)CC3OC1CC(N)C(O)C(C)O1 (stereo unspecified) + Cc1cnc(CNC(=O)c2c(=O)c3ccc(N4CCCN(C)CC4)nc3n3c2sc2ccccc23)cn1
Second compound 0.0316 µM
  IC50: < 31.6 nM
Second compound 0.1 µM
  IC50: < 31.6 nM
Second compound 0.316 µM
  IC50: < 31.6 nM
Second compound 1 µM
  IC50: < 31.6 nM
Second compound 3.16 µM
  IC50: < 31.6 nM
Second compound 10 µM
  IC50: < 31.6 nM
[1]
  viability, T/C: 47.7%
Second compound 0.0316 µM, first compound 0.1 µM
  viability, T/C: 44.6%
[2]
  viability, T/C: 34.8%
Second compound 0.0316 µM, first compound 1 µM
  viability, T/C: 19.2%
Second compound 0.0316 µM, first compound 3.16 µM
  viability, T/C: 1.21%
Second compound 0.0316 µM, first compound 10 µM
  viability, T/C: 1.57%
[3]
  viability, T/C: 47.7%
Second compound 0.1 µM, first compound 0.1 µM
  viability, T/C: 43.1%
[4]
  viability, T/C: 33.9%
Second compound 0.1 µM, first compound 1 µM
  viability, T/C: 19.1%
Second compound 0.1 µM, first compound 3.16 µM
  viability, T/C: 0.53%
Second compound 0.1 µM, first compound 10 µM
  viability, T/C: 1.49%
[5]
  viability, T/C: 44.1%
Second compound 0.316 µM, first compound 0.1 µM
  viability, T/C: 39.7%
[6]
  viability, T/C: 30.2%
Second compound 0.316 µM, first compound 1 µM
  viability, T/C: 14.3%
Second compound 0.316 µM, first compound 3.16 µM
  viability, T/C: 0.1%
Second compound 0.316 µM, first compound 10 µM
  viability, T/C: 1.32%
[7]
  viability, T/C: 41.4%
Second compound 1 µM, first compound 0.1 µM
  viability, T/C: 35.2%
[8]
  viability, T/C: 30.6%
Second compound 1 µM, first compound 1 µM
  viability, T/C: 16%
Second compound 1 µM, first compound 3.16 µM
  viability, T/C: 0.1%
Second compound 1 µM, first compound 10 µM
  viability, T/C: 0.65%
[9]
  viability, T/C: 33.8%
Second compound 3.16 µM, first compound 0.1 µM
  viability, T/C: 32.2%
[10]
  viability, T/C: 25.4%
Second compound 3.16 µM, first compound 1 µM
  viability, T/C: 11.2%
Second compound 3.16 µM, first compound 3.16 µM
  viability, T/C: 0.14%
Second compound 3.16 µM, first compound 10 µM
  viability, T/C: 0.46%
[11]
  viability, T/C: 31%
Second compound 10 µM, first compound 0.1 µM
  viability, T/C: 28.8%
[12]
  viability, T/C: 24.5%
Second compound 10 µM, first compound 1 µM
  viability, T/C: 4.52%
Second compound 10 µM, first compound 3.16 µM
  viability, T/C: 0.19%
Second compound 10 µM, first compound 10 µM
  viability, T/C: 0.43%

## CC[C@@]1(O)C(=O)OCc2c1cc1n(c2=O)Cc2cc3c(CN(C)C)c(O)ccc3nc2-1 + Cc1cnc(CNC(=O)c2c(=O)c3ccc(N4CCCN(C)CC4)nc3n3c2sc2ccccc23)cn1
Second compound 0.0316 µM
  IC50: 32.8 nM
Second compound 0.1 µM
  IC50: 1.27 nM
Second compound 0.316 µM
  IC50: 1.65 nM
Second compound 1 µM
  IC50: < 0.999 nM
Second compound 3.16 µM
  IC50: < 0.999 nM
Second compound 10 µM
  IC50: < 0.999 nM
[13]
  viability, T/C: 63.9%
[14]
  viability, T/C: 62.7%
[15]
  viability, T/C: 53.8%
[1]
  viability, T/C: 54.5%
[16]
  viability, T/C: 38.4%
[2]
  viability, T/C: 32.8%
[17]
  viability, T/C: 50.7%
[18]
  viability, T/C: 47.6%
[19]
  viability, T/C: 47.5%
[3]
  viability, T/C: 42.6%
[20]
  viability, T/C: 41%
[4]
  viability, T/C: 36.5%
[21]
  viability, T/C: 49.7%
[22]
  viability, T/C: 49.1%
[23]
  viability, T/C: 48.5%
[5]
  viability, T/C: 40.1%
[24]
  viability, T/C: 34.7%
[6]
  viability, T/C: 33.4%
[25]
  viability, T/C: 40%
[26]
  viability, T/C: 40.6%
[27]
  viability, T/C: 39.1%
[7]
  viability, T/C: 40.5%
[28]
  viability, T/C: 39.9%
[8]
  viability, T/C: 35.2%
[29]
  viability, T/C: 38.4%
[30]
  viability, T/C: 37.9%
[31]
  viability, T/C: 37.7%
[9]
  viability, T/C: 33.1%
[32]
  viability, T/C: 35.9%
[10]
  viability, T/C: 29.9%
[33]
  viability, T/C: 31.7%
[34]
  viability, T/C: 35.8%
[35]
  viability, T/C: 29.8%
[11]
  viability, T/C: 31.9%
[36]
  viability, T/C: 32.7%
[12]
  viability, T/C: 28.4%

## CCc1c2c(nc3ccc(O)cc13)-c1cc3c(c(=O)n1C2)COC(=O)[C@]3(O)CC + Cc1[nH]c2ccc(F)cc2c1-c1nc2c3cccnc3c3ncccc3c2[nH]1
Second compound 0.0316 µM
  IC50: 2.44 nM
Second compound 0.1 µM
  IC50: 3.09 nM
Second compound 0.316 µM
  IC50: 2.7 nM
Second compound 1 µM
  IC50: 2.27 nM
Second compound 3.16 µM
  IC50: 1.62 nM
Second compound 10 µM
  IC50: 1.41 nM
[13]
  viability, T/C: 69.7%
[14]
  viability, T/C: 42.2%
[15]
  viability, T/C: 36.2%
[1]
  viability, T/C: 31.7%
[16]
  viability, T/C: 30%
[2]
  viability, T/C: 24.7%
[17]
  viability, T/C: 71.1%
[18]
  viability, T/C: 47.1%
[19]
  viability, T/C: 37.2%
[3]
  viability, T/C: 34.3%
[20]
  viability, T/C: 27.3%
[4]
  viability, T/C: 22.3%
[21]
  viability, T/C: 68.8%
[22]
  viability, T/C: 44.2%
[23]
  viability, T/C: 37.5%
[5]
  viability, T/C: 31.4%
[24]
  viability, T/C: 28%
[6]
  viability, T/C: 22.4%
[25]
  viability, T/C: 62.6%
[26]
  viability, T/C: 43.5%
[27]
  viability, T/C: 35.1%
[7]
  viability, T/C: 32.3%
[28]
  viability, T/C: 27.5%
[8]
  viability, T/C: 23.4%
[29]
  viability, T/C: 57.5%
[30]
  viability, T/C: 38.9%
[31]
  viability, T/C: 33.2%
[9]
  viability, T/C: 30.8%
[32]
  viability, T/C: 27.6%
[10]
  viability, T/C: 25.8%
[33]
  viability, T/C: 55.2%
[34]
  viability, T/C: 37.7%
[35]
  viability, T/C: 33%
[11]
  viability, T/C: 29.5%
[36]
  viability, T/C: 24.8%
[12]
  viability, T/C: 23.7%
